Measured values reported in PMC3658936, “Comparison of cyclic RGD peptides for αvβ3 integrin detection in a rat model of myocardial infarction” (EJNMMI Research, 2013).
Read-outs that look alike come from different tables or passages of the source.

How the values were obtained:
[1] = Ex vivo biodistribution in tissues by gamma counting; parameters: species or system rat; settings: for tissue uptake at 1.5 h: Lewis, rat, in vivo, total radioactivity
Protocol: Rats were anesthetised using 1.5% isoflurane and were injected via tail vein catheter with ^18F-galacto-RGD (37 MBq, n = 9), ^68Ga-NODAGA-RGD (69 MBq, n = 10) or of ^68Ga-TRAP(RGD)3 (54 MBq, n = 12). Rats were kept under anaesthesia in a warmed bed until euthanized after 90 min using intravenous injection of 150 mg/kg of pentobarbiturate (Narcoren®, Merial, Rohrdorf, Germany). The heart was excised and cut transaxially at the location of the infarct. The apical part, containing both infarct and non-affected remote myocardium, was processed for sectioning for autoradiography as described below.
Tissue samples (remote myocardium, apical part of myocardium, femoral muscle, operation wound and the connective tissue contralateral to the wound, spleen, liver, kidney, urine and blood) were dissected, and the weights of the tissue, urine, blood and serum samples were measured and their activity was detected using a gamma counter (1480 Wizard, PerkinElmer Wallac, Turku, Finland).

[2] = test system: αvβ3 integrin; test: in vivo; settings: for tissue uptake per volume at 1.375 h: male, Lewis, in vivo, iv, total radioactivity
Protocol: Permanent ligation of the left anterior descending coronary artery was performed, as previously described in 34 healthy male Lewis rats (Charles Rivers Laboratories, Sulzfeld, Germany) aged 8 to 10 weeks to induce MI. Briefly, the rats were anaesthetised with intramuscular administration of midazolam 5 mg/kg (Dormicum®, Roche; Grenzach-Wyhlen, Germany), medetomidin 0.5 mg/kg (Dormitor®, Pfizer, Karlsruhe, Germany) and fentanyl 0.05 mg/kg (Ratiopharm, Ulm, Germany) and connected to a rodent ventilator. The heart was exposed through a left lateral thoracotomy of the fourth intercostal space, and the left anterior descending (LAD) artery was ligated near to its origin (2 to 3 mm from the tip of the left atrium). Two rats underwent sham operation, which consisted of the same procedures except that the LAD artery suture was not tightened. The rats were treated with 0.05 mg/kg buprenorphin (Temgesic®, Essex, Germany) and 4 mg/kg carprofen (Rimadyl, Pfizer, Germany) for 72 h post surgery. The study protocols were approved by the regional governmental commission for animal protection (Regierung von Oberbayern, Munich, Germany).
A subset of animals (n = 7) was imaged using a small-animal PET/CT scanner (Inveon, Siemens Medical Solutions, Knoxville, TN, USA). The rats were anaesthetised using 1.5% isoflurane. Breathing was monitored and temperature was maintained using a heating pad throughout the imaging procedures. The rats were injected with 37 MBq of [^13N]NH3 via tail a vein catheter, and perfusion images were acquired for 15 min starting at the time of injection. A CT scan was performed for anatomical localisation. The animals were left anaesthetised in the scanner, and 60 min later, the animals were injected with either ^68Ga-NODAGA-RGD (72 MBq, n = 4) or ^68Ga-TRAP(RGD)3 (63 MBq, n = 3) via the tail vein. […]
The ^68Ga- and ^13N-PET images were fused, and the uptake was visualised using the Inveon Research Workplace (Siemens, Knoxville, TN, USA). […] The mean radioactivity concentration within the ROI was expressed as the percentage of injected dose per cubic centimetre (% ID/cc).

[3] = test system: αvβ3 integrin; test: Ex vivo autoradiography of RGD tracer uptake in the myocardium (infarct vs. remote); settings: rat MI 1 week after LAD ligation, 90 min p.i., mean ± SD
Protocol: Permanent ligation of the left anterior descending coronary artery was performed, as previously described in 34 healthy male Lewis rats (Charles Rivers Laboratories, Sulzfeld, Germany) aged 8 to 10 weeks to induce MI. Briefly, the rats were anaesthetised with intramuscular administration of midazolam 5 mg/kg (Dormicum®, Roche; Grenzach-Wyhlen, Germany), medetomidin 0.5 mg/kg (Dormitor®, Pfizer, Karlsruhe, Germany) and fentanyl 0.05 mg/kg (Ratiopharm, Ulm, Germany) and connected to a rodent ventilator. […]
The excised hearts were frozen and embedded in Tissue Tek® mounting media (Sakura Finetek Europe B.V., Alphen aan den Rijn, the Netherlands). […] After an overnight exposure, the imaging plates were scanned with an image plate scanner (CR 35 BIO, Dürr Medical, Raytest Isotopenmeßgeräte GmbH, Germany; internal resolution of 25 μm), and the images were analysed for background-corrected count densities (PSL/mm^2) with an image analysis programme (AIDA Image Analyser, Raytest Isotopenmeßgeräte, Germany). […]
(§1) After careful co-registration of the autoradiographs and HE histological images, regional tracer uptake was analysed in the following two regions: (1) the infarcted myocardium containing the border zone as assessed after HE staining and (2) the remote, non-affected myocardium. […]

[4] = test system: αvβ3 integrin; parameters: method as in PMID 22147338, PMID 22444238; settings: competitive displacement assay on M21 human melanoma cells; cited from earlier work
[5] = test system: αvβ3 integrin; test: Specificity of RGD binding: pre-injection of a blocking dose of cilengitide, autoradiography; type: in vivo, rat; settings: cilengitide 18 mg/kg 10 min prior to tracer injection
Protocol: The specificity of the RGD binding was studied on three rats with pre-injection of a blocking dose of cilengitide (18 mg/kg = 30.6 μmol/kg) 10 min prior to the tracer injection.
The excised hearts were frozen and embedded in Tissue Tek® mounting media (Sakura Finetek Europe B.V., Alphen aan den Rijn, the Netherlands). Serial LV short-axis cryosections of 20-μm thickness were obtained. Similar sections of muscle and spleen samples of the same rat were processed and used as negative and positive controls. After quick air drying, the sections were exposed to an imaging plate (Kodak Storage Phosphor screen GP, Eastman Kodak Company, Rochester, NY, USA). After an overnight exposure, the imaging plates were scanned with an image plate scanner (CR 35 BIO, Dürr Medical, Raytest Isotopenmeßgeräte GmbH, Germany; internal resolution of 25 μm), and the images were analysed for background-corrected count densities (PSL/mm^2) with an image analysis programme (AIDA Image Analyser, Raytest Isotopenmeßgeräte, Germany). […]
as §1

Question: For `N=C(N)NCCC[C@@H]1NC(=O)[C@H](CCCCNC(=O)CCC(C(=O)O)N2CCN(CC(=O)O)CCN(CC(=O)O)CC2)NC(=O)[C@@H](Cc2ccc(O)cc2)NC(=O)[C@H](CC(=O)O)NC(=O)CNC1=O` (stereo partly shown) [^68Ga-NODAGA-RGD, ^68Ga-NODAGA-cyclo(RGDyK), metal not drawn], which tissue uptake at 1.5 h ([1]; Biodistribution: Apical myocardium) is on record?
Answer: 0.156 ± 0.06 %ID/g

Question: And the tissue uptake at 1.5 h ([1]; Biodistribution: Blood)?
Answer: 0.058 ± 0.02 %ID/g

Question: What about the tissue uptake at 1.5 h ([1]; Biodistribution: Connective tissue) of the same compound?
Answer: 0.11 ± 0.05 %ID/g

Question: And the tissue uptake at 1.5 h ([1]; Biodistribution: Kidney)?
Answer: 1.1 ± 0.7 %ID/g

Question: And the tissue uptake at 1.5 h ([1]; Biodistribution: Liver)?
Answer: 0.23 ± 0.17 %ID/g

Question: And the tissue uptake at 1.5 h ([1]; Biodistribution: Muscle)?
Answer: 0.035 ± 0.01 %ID/g

Question: What about the tissue uptake at 1.5 h ([1]; Biodistribution: Remote myocardium) of the same compound?
Answer: 0.071 ± 0.03 %ID/g

Question: What about the tissue uptake at 1.5 h ([1]; Biodistribution: Serum) of the same compound?
Answer: 0.094 ± 0.05 %ID/g

Question: And the tissue uptake at 1.5 h ([1]; Biodistribution: Spleen)?
Answer: 0.246 ± 0.16 %ID/g

Question: What about the tissue uptake at 1.5 h ([1]; Biodistribution: Urine) of the same compound?
Answer: 20.2 ± 6.4 %ID/g

Question: And the tissue uptake at 1.5 h ([1]; Biodistribution: Wound)?
Answer: 0.27 ± 0.24 %ID/g

Question: And the tissue uptake per volume at 1.375 h ([2]; rat)?
Answer: 0.17 ± 0.03 %ID/mL

Question: For `N=C(N)NCCC[C@@H]1NC(=O)[C@H](CCCCNC(=O)CCP(=O)(O)CN2CCN(CP(=O)(O)CCC(=O)NCCCC[C@@H]3NC(=O)[C@@H](Cc4ccccc4)NC(=O)[C@H](CC(=O)O)NC(=O)CNC(=O)[C@H](CCCNC(=N)N)NC3=O)CCN(CP(=O)(O)CCC(=O)NCCCC[C@@H]3NC(=O)[C@@H](Cc4ccccc4)NC(=O)[C@H](CC(=O)O)NC(=O)CNC(=O)[C@H](CCCNC(=N)N)NC3=O)CC2)NC(=O)[C@@H](Cc2ccccc2)NC(=O)[C@H](CC(=O)O)NC(=O)CNC1=O` [^68Ga-TRAP(RGD)3, ^68Ga-TRAP(cyclo(RGDfK))3, metal not drawn], which “infarct vs. remote PSL/mm2 uptake ratio” value [3] is on record?
Answer: 4.1 ± 0.7

Question: And the tissue uptake at 1.5 h ([1]; 90 min p.i., mean ± SD, contains both infarct and remote areas, read-out: Biodistribution: Apical myocardium)?
Answer: 0.353 ± 0.1 %ID/g

Question: And the tissue uptake at 1.5 h ([1]; 90 min p.i., mean ± SD, contralateral to the wound, read-out: Biodistribution: Connective tissue)?
Answer: 0.19 ± 0.08 %ID/g

Question: What about the tissue uptake at 1.5 h ([1]; 90 min p.i., mean ± SD, read-out: Biodistribution: Blood) of the same compound?
Answer: 0.101 ± 0.07 %ID/g

Question: And the tissue uptake at 1.5 h ([1]; 90 min p.i., mean ± SD, read-out: Biodistribution: Kidney)?
Answer: 1.45 ± 0.51 %ID/g

Question: What about the tissue uptake at 1.5 h ([1]; 90 min p.i., mean ± SD, read-out: Biodistribution: Liver) of the same compound?
Answer: 0.524 ± 0.61 %ID/g

Question: And the tissue uptake at 1.5 h ([1]; 90 min p.i., mean ± SD, read-out: Biodistribution: Muscle)?
Answer: 0.066 ± 0.03 %ID/g

Question: And the tissue uptake at 1.5 h ([1]; 90 min p.i., mean ± SD, read-out: Biodistribution: Remote myocardium)?
Answer: 0.154 ± 0.09 %ID/g

Question: And the tissue uptake at 1.5 h ([1]; 90 min p.i., mean ± SD, read-out: Biodistribution: Serum)?
Answer: 0.166 ± 0.12 %ID/g

Question: And the tissue uptake at 1.5 h ([1]; 90 min p.i., mean ± SD, read-out: Biodistribution: Spleen)?
Answer: 0.415 ± 0.3 %ID/g

Question: And the tissue uptake at 1.5 h ([1]; 90 min p.i., mean ± SD, read-out: Biodistribution: Urine)?
Answer: 35.1 ± 22.4 %ID/g

Question: What about the tissue uptake at 1.5 h ([1]; 90 min p.i., mean ± SD, read-out: Biodistribution: Wound) of the same compound?
Answer: 0.256 ± 0.12 %ID/g

Question: What about the apical-to-remote ratio ([1]; gamma counting, apical part vs. remote myocardium tissue sample) of the same compound?
Answer: 2.1

Question: And the “infarct-to-remote ratio (PET)” value ([2]; PET image-derived, rat MI 1 week)?
Answer: 1.9

Question: And the tissue uptake per volume at 1.375 h ([2]; PET, 82.5 min after injection, rat MI 1 week, read-out: image-derived average uptake in the myocardium, infarct area)?
Answer: 0.25 ± 0.02 %ID/mL

Question: What about the IC50 [4] of the same compound?
Answer: 44 nM

Question: Which “infarct vs. remote PSL/mm2 uptake ratio” value [3] does the source give for “^18F-galacto-cyclo(RGDfK) [^18F-galacto-RGD, reference compound]” here?
Answer: 4.7 ± 0.8

Question: What about the IC50 [4] of the same compound?
Answer: 319 nM

Question: Which “effect of pre-injection of high-dose cilengitide on tracer uptake” value [5] does the source give for cilengitide here?
Answer: reduced the uptake in the myocardium and also in the spleen
